The values that follow come from publication PMC9523973 (Cell reports, 2022).

Assay [1] deals with human NaV1.7 tamoxifen receptor (Homo sapiens, UniProt Q15858). Nature of the assay: NaV1.7 tritium-labeled tamoxifen competitive binding assay. The following applies: competition with H^3-Tam.
Assay [2] has as its system endogenously expressed NaVs in cultured DRG neurons. Nature of the assay: Whole cell voltage clamp of sodium current. The class given is cell-based, mouse. The conditions noted are these: for IC50: read-out: IC50 of DRG INa inhibition.
Assay [3] concerns the target human NaV1.7 (Homo sapiens, UniProt Q15858). Nature of the assay: Voltage clamp of expressed WT NaV1.7 INa.
Assay [4] concerns knee hyperalgesia in mice after DMM surgery. The assay can be described thus: In vivo osteoarthritis pain model. Details: species or system mouse. The following applies: for knee hyperalgesia vs vehicle, 30 minutes after injection / knee withdrawal threshold vs vehicle through 3 hours: 50 μM intra-articular in 0.1% DMSO.
Assay [5] relates to NaV1.7 DII S969A and DIV D1761A. The class given is cell-based, human. The following applies: vs WT NaV1.7.
Assay [6] concerns the target NaV1.7 D1458A (Homo sapiens, UniProt Q15858, D1458A). The assay can be described thus: Voltage clamp of NaV1.7 alanine substitution in domain III. Format: cell-based. The following applies: vs WT NaV1.7.
The target of assay [7] is NaV1.7 S969A:D1761A double mutant (Homo sapiens, UniProt Q15858, E1761A/S969A). Format: cell-based. The following applies: read-out: IC50 of INa inhibition, S969A:D1761A double mutant channels.
For assay [8], the system named is NaV1.7 S969A:D1761A double mutant. The class given is cell-based, human.
For assay [9], the system named is NaV1.7 F1748A and Y1755A. The assay can be described thus: Voltage clamp of NaV1.7 local anesthetic binding site mutations. The following applies: vs WT NaV1.7. The class given is cell-based, human.
Assay [10] concerns DRG action potentials. Nature of the assay: Current clamp recording of cultured DRG neuron action potentials. The class given is cell-based, mouse.
In assay [11] the test system is knee hyperalgesia in mice after DMM surgery. The following applies: 20 mg/kg, ~0.85M, ref Miller et al., 2018; cited from earlier work.

Entries after “also recorded” stand apart in the source; their conditions may differ. Like-named read-outs stand apart in the source and are kept apart here.

Sequence of human NaV1.7 (Q15858 whole entry): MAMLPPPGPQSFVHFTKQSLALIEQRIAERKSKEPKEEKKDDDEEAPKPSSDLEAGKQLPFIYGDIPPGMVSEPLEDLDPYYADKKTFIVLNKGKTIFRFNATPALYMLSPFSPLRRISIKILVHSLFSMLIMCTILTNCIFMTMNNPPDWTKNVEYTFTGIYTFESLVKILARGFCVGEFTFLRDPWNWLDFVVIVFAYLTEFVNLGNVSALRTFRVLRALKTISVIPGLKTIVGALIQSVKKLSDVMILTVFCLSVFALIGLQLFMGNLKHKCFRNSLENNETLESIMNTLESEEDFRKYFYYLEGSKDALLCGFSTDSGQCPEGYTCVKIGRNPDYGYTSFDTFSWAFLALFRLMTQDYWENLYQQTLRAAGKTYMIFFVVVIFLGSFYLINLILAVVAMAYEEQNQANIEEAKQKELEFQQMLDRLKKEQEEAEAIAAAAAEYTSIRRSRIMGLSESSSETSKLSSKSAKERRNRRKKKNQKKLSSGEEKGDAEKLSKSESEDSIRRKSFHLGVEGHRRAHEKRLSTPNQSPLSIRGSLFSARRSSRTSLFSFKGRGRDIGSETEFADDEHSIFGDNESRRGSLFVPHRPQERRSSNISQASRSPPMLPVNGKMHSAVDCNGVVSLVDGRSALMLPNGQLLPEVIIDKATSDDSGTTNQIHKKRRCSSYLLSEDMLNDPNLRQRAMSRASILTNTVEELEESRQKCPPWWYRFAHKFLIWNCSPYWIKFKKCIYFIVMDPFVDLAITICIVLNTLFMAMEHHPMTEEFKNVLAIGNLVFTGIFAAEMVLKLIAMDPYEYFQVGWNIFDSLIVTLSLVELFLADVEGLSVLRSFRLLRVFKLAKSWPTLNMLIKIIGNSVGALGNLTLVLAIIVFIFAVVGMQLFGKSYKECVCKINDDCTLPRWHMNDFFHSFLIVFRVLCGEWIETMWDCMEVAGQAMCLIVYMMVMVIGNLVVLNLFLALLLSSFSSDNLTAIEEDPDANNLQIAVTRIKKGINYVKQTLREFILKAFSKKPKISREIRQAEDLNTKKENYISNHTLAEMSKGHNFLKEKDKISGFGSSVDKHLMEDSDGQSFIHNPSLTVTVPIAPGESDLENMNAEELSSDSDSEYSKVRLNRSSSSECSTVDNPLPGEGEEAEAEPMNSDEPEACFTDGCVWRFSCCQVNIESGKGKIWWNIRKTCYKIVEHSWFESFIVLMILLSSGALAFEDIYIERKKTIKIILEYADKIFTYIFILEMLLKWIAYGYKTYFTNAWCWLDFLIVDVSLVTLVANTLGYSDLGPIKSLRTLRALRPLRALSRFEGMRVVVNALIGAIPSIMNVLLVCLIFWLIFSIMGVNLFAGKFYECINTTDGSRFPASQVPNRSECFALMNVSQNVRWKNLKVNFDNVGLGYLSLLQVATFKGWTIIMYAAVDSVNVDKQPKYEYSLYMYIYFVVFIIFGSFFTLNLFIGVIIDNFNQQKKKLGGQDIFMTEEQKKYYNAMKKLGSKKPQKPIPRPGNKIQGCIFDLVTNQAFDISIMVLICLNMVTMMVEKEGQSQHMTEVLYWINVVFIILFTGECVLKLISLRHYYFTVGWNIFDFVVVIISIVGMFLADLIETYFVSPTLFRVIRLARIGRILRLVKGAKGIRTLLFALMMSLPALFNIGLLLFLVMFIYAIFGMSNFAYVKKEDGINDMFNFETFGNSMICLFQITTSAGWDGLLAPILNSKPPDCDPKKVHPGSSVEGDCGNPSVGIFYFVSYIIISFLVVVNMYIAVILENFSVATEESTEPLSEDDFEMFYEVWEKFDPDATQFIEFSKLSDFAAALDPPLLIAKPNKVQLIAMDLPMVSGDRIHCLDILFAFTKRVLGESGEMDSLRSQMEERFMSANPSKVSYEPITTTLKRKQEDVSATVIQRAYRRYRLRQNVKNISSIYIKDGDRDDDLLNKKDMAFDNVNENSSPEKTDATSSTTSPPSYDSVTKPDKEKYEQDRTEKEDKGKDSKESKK
Sequence of human NaV1.7 (Q07699 19-218 partner): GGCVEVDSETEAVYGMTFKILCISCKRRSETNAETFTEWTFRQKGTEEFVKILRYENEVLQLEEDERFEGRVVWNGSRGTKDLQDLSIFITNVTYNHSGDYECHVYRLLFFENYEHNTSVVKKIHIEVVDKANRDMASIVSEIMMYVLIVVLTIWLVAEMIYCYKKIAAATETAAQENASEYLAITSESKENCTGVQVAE
Sequence of human NaV1.7 tamoxifen receptor (Q15858 whole entry): as the sequence (Q15858 whole entry) above
Sequence of NaV1.7 D1458A (Q15858 whole entry D1458A, the tested form may be a part): as the sequence (Q15858 whole entry) above, with D1458A counted along it
Sequence of NaV1.7 D1458A (Q07699 19-218 partner): as the sequence (Q07699 19-218 partner) above
Sequence of NaV1.7 S969A:D1761A double mutant (Homo sapiens, UniProt Q15858, E1761A/S969A) (Q15858 whole entry S969A/E1761A): as the sequence (Q15858 whole entry) above, with S969A, E1761A counted along it
Sequence of NaV1.7 S969A:D1761A double mutant (Homo sapiens, UniProt Q15858, E1761A/S969A) (Q07699 19-218 partner): as the sequence (Q07699 19-218 partner) above

Consider “4-hydroxy-N-desmethyl benzophenone [4OH-ND-BP]”, for which, in assay [1], the “binding to NaV1.7 (in words)” value is reported as “specific binding”.

As to `O=C(c1ccccc1)c1ccc(O)cc1` [4OH-BP, 4-hydroxy benzophenone], in assay [1], the “binding to NaV1.7 (in words)” value is on record as “specific binding”.

`CC/C(=C(\c1ccc(O)cc1)c1ccc(OCCN(C)C)cc1)c1ccccc1` [4OH-Tam, 4-hydroxy tamoxifen]: the “inhibition of DRG neuron INa (in words)” value in assay [2] is given as “inhibit DRG neuron INa”. In [3], the “Hill slope coefficient of NaV1.7 INa inhibition” value stood at 1.9.

Regarding `C=C(C)[C@@H]1CCC(C)=C[C@H]1c1c(O)cc(CCCCC)cc1O` [CBD, cannabidiol, reference compound], in [4] (4 weeks after DMM), the “knee hyperalgesia vs vehicle, 30 minutes after injection” value is “effectively inhibited knee hyperalgesia” and the “knee withdrawal threshold vs vehicle through 3 hours” value is given as “remained elevated compared to vehicle control”.

Consider `CC/C(=C(\c1ccccc1)c1ccc(OCCNC)cc1)c1ccccc1` [ND-Tam, N-desmethyl tamoxifen], for which, in assay [2], the “inhibition of DRG neuron INa (in words)” value was “inhibit DRG neuron INa”. Further, the “frequency dependence of DRG INa inhibition” value in assay [2] (300 nM at 0.1, 10 and 20 Hz) is reported as “enhanced current inhibition at greater depolarization frequencies”. Also, in [2] (1 μM), the “block of the total INa” value is “≈ 45%”, the “change in half-maximal activation of conductance (GV1/2)” value is listed as “no change” and the “voltage-dependence of inactivation after drug treatment” value was −51.9 ± 0.4 mV. Besides, in [2] (1 μM ND-Tam conditions), the “half-maximal conductance-voltage relationship (V1/2)” value was −37.7 ± 0.4 mV. Also, the concentration for half-maximal inhibition (IC50) (in general, the concentration needed to halve the response being measured) in [2] (−40 mV holding potential) was 3.9 nM. Further, the IC50 in assay [2] (−60 mV holding potential) came out at 112 nM. Further, in assay [2] (waiting 5 minutes after removal), the “INa that did not recover after removing drug from the bath” value was determined as 86 ± 5%. In assay [5], the “reduced potency of INa inhibition” value is reported as 3–7 times. Also, in [6], the “change in potency or slope” value is “no change in potency or slope”. Besides, the IC50 in [7] was 36000 nM. For the same molecule, the “potency reduction compared to WT NaV1.7” value in assay [8] is “more than 21 times”. Also, the “change in ND-Tam potency” value in [9] was “little change”. For the same molecule, the “impact on the resting membrane potential” value in assay [10] (100 nM, spontaneously firing neurons) is on record as “insignificant impact”. The “reduction of the frequency of spontaneous action potentials” value in assay [10] (100 nM, three-minute extracellular application, no current injected) is given as 91%. For the same molecule, the “inhibition of action potential frequency and peak amplitude after washout” value in assay [10] (control saline for 2 minutes after drug) is listed as “persistent”. In addition, the “area under the curve analysis of the first 3.5 hours post injection” value in assay [4] (0.5 μM, after 3rd daily injection, compared to lidocaine or vehicle) is recorded as “superior efficacy”. Also, the “knee hyperalgesia vs vehicle” value in assay [4] (50 μM (~0.002 mg/kg) intra-articular, vehicle 50% EtOH, 4 weeks after DMM, 30 minutes after injection) is reported as “rapidly inhibited knee hyperalgesia pain; also recorded: provided relief from hyperalgesia”. In assay [4] (4 weeks after DMM), the “knee hyperalgesia vs vehicle, 30 minutes after injection” value is recorded as “effectively inhibited knee hyperalgesia” and the “knee withdrawal threshold vs vehicle through 3 hours” value is given as “remained elevated compared to vehicle control”. The “Hill slope coefficient of NaV1.7 INa inhibition” value in assay [3] was found to be 2.2. Further, in assay [3] (read-out: IC50 of INa inhibition, WT NaV1.7), the concentration for half-maximal inhibition (IC50) was 1700 nM.

As to `CNCCOc1ccccc1` [NM2P, N-methyl 2 phenoxyethanamine], in assay [1], the “binding to NaV1.7 (in words)” value was “specific binding”.

As for `CCN(CC)CC(=O)Nc1c(C)cccc1C` [lidocaine, reference compound], in [4] (4 weeks after DMM), the “knee hyperalgesia vs vehicle, 30 minutes after injection” value is listed as “effectively inhibited knee hyperalgesia” and the “knee withdrawal threshold vs vehicle through 3 hours” value is listed as “remained elevated compared to vehicle control”. Also, the “knee hyperalgesia after local injection of a high dose” value in assay [11] is listed as “able to acutely reverse knee hyperalgesia”.
